Columns and labels:
Format in all cases: cell-based
[1] = molecular target: Ba/F3 EGFR-D770-N771ins_SVD (Homo sapiens, UniProt P00533, DUP768-770, cells depend on it); experiment: Proliferation experiment of Ba/F3 cell line, EGFR-D770-N771ins_SVD (CellTiter-Glo); settings: cultured for 72 hrs with compound, CTG analysis, read-out: Ba/F3 EGFR-D770-N771ins_SVD IC50
Procedure: (§1) Proliferation Experiment of Ba/F3 Cell Line
(§2) (I) Reagents and Materials
(§3) • Fetal bovine serum FBS (GBICO, Cat #10099-141); • CellTiter-Glo® luminescent cell viability assay kit (Promega, Cat #G7572); • Black transparent flat-bottom 96 well plate (Corning®, Cat #3603). (II) Instruments • SpectraMax multi-label microplate reader MD, 2104-0010A; • Carbon dioxide incubator, Thermo Scientific 3100 series; • Biological safety cabinet, Thermo Scientific, 1300 series model A2; • Inverted microscope, Olympus, CKX41SF; • Siemens refrigerator KK25E76TI. (III) Cell Lines and Culture Conditions
(§4) (IV) Experimental Procedures 1. Cell Culture and Inoculation: • (1) Cells in the logarithmic growth phase were harvested and counted using a […]. Cell viability was detected by Trypan Blue Dye Exclusion Method to ensure cell viability above 90%. • (2) The cell concentration was adjusted to reach a desired final density; 90 μL of cell suspension was added to the 96-well plate. • (3) The cells were incubated overnight in the 96-well plate at 37° C., 5% CO2 and at 95% humidity.
(§5) 2. T0 Reference Data: • (1) 10 μL PBS was added to each well of the TO plate containing the cells. • (2) The CTG reagent was thawed and the cell plate was equilibrated to room temperature for 30 min. • (3) An equal volume of CTG solution was added to each well. • (4) The cells were lysed by shaking on an orbital shaker for 5 min. • (5) The cell plate was left at room temperature for 20 min to stabilize the luminescence signal. • (6) The fluorescence signal values of TO were read. 3. Dilution and Addition of Compounds • (1) According to the compound information table, a corresponding volume of DMSO was added to the corresponding compound powder to prepare a 10 mM stock solution. • (2) A 1000-fold, 3.16-fold-diluted compound solution was prepared. • (3) The 1000× diluted compound solution was diluted 100-fold with PBS to prepare a 10-fold compound solution with a maximum concentration of […], including 9 concentrations, with 3.16-fold dilution, and 10 μL of the medicament solution was added to each well of the 96-well plate to seed the cells. Triplicate wells were set for each compound concentration, with a final concentration of DMSO being 0.1%. • (4) The cells were placed in the 96-well plate filled with the medicament at 37° C., 5% CO2 and at 95% humidity, and cultured for 72 hrs before CTG analysis. 4. Fluorescence Signal Reading • (1) The CTG reagent was thawed and the cell plate was equilibrated to room temperature for 30 min. • (2) An equal volume of CTG solution was added to each well. • (3) The cells were lysed by shaking on an orbital shaker for 5 min. • (4) The cell plate was left at room temperature for 20 min to stabilize the fluorescence signal. • (5) The fluorescence values were read. 5. Data Processing
(§6) Data were analyzed using GraphPad Prism 7.0 software and fitted data were regressed using non-linear S-curves to obtain dose-response curves from which IC50 values (in nM) were calculated.

A431 (EGFR-WT) = experiment: Proliferation experiment, A431 cell line (CellTiter-Glo); settings: Homo sapiens, A-431; A431 cells, cultured for 72 hrs with compound, CTG analysis
Procedure: [The procedure below names another cell line; the source lists this cell line under the same test.] as §1, §2, §3, §4, §5, §6

[2] = molecular target: Ba/F3 EGFR-V769_D770insASV (Homo sapiens, UniProt P00533, DUP767-769, cells depend on it); experiment: Proliferation experiment of Ba/F3 cell line, EGFR-V769_D770insASV (CellTiter-Glo); settings: cultured for 72 hrs with compound, CTG analysis, read-out: Ba/F3 EGFR-V769_D770insASV IC50
Chain of Ba/F3 EGFR-V769_D770insASV (P00533 with tags, fused parts or gaps DUP767-769): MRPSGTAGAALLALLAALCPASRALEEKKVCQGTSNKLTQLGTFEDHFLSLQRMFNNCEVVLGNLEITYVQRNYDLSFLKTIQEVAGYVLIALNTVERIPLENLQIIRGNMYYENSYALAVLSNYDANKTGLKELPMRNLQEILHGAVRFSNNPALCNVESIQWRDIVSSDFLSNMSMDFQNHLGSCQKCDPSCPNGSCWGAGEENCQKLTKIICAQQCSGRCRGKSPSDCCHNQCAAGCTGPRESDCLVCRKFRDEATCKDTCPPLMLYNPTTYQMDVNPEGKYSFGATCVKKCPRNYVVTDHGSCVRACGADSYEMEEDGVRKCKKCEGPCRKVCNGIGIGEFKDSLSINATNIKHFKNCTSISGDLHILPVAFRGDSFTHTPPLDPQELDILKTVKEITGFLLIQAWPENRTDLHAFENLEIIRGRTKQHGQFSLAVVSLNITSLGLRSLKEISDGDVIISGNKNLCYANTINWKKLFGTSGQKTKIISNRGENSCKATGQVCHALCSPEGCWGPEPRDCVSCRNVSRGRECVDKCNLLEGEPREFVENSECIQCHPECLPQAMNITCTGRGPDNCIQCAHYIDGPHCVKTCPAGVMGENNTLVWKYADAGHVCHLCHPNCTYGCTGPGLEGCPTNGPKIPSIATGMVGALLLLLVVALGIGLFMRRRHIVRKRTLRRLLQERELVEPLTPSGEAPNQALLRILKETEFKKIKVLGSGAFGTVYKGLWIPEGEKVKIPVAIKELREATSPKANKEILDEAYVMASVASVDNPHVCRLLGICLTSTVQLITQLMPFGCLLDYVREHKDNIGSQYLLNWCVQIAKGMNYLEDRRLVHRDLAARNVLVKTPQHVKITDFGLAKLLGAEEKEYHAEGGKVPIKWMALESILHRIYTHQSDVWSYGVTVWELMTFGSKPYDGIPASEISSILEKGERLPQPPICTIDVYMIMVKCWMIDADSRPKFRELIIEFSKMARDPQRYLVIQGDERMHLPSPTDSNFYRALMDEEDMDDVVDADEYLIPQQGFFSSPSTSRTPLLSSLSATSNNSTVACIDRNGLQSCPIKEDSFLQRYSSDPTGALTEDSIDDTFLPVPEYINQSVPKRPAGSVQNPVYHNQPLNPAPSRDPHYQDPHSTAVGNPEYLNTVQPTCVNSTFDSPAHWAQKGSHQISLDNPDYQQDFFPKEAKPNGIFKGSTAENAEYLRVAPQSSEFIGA
Procedure: as §1, §2, §3, §4, §5, §6

Chain of Ba/F3 EGFR-D770-N771ins_SVD (P00533 with tags, fused parts or gaps DUP768-770): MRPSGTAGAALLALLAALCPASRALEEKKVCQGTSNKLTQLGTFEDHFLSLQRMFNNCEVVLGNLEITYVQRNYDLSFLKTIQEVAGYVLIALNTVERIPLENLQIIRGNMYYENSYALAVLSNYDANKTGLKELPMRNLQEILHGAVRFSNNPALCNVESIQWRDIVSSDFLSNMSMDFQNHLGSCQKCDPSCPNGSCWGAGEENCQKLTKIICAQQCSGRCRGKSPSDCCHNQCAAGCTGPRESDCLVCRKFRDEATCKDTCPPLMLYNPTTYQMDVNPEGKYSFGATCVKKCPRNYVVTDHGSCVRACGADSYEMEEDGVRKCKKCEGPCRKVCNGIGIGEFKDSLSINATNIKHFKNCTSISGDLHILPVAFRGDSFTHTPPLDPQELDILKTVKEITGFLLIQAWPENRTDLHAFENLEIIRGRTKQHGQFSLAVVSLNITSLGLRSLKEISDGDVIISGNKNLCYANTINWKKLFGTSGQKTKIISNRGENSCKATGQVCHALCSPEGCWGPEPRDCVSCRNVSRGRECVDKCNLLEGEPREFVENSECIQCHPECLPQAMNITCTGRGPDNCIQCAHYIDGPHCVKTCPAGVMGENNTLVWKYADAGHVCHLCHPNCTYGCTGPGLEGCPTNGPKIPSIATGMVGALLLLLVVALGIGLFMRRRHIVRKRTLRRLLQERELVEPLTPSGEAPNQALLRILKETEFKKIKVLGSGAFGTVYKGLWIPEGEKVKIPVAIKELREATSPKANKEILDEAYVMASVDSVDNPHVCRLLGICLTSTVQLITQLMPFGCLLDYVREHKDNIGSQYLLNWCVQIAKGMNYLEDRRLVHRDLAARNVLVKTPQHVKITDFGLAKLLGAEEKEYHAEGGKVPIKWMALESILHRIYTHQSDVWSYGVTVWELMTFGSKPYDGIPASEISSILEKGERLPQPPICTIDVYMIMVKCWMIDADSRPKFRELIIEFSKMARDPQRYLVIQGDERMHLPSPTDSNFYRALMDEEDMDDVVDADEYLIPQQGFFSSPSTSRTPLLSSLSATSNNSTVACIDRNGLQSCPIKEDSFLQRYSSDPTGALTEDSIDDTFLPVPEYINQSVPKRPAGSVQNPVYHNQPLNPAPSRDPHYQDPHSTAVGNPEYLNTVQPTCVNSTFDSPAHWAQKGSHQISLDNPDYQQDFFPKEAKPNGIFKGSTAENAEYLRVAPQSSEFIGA

| SMILES | GI50 [1] | IC50 (A431 (EGFR-WT)) | GI50 [2] |
| --- | --- | --- | --- |
| C=CC(=O)Nc1cc2c(Nc3cc(-c4ccc(F)cc4F)ccc3F)ncnc2cc1OCCN1CCOCC1 [Example 10, N-(7-(2-morpholinoethoxy)-4-((2′,4,4′-trifluoro-[1,1′-biphenyl]-3-yl)amino)quinazolin-6-yl)acrylamide] | 28.7 nM | 625 nM |  |
| C=CC(=O)Nc1cc2c(Nc3cccc(-c4ccc(F)cc4F)c3)ncnc2cc1C#CC(C)(C)N1CCN(C)CC1 [Example 12, N-(4-((2′,4′-difluoro-[1,1′-biphenyl]-3-yl)amino)-7-(3-methyl-3-(4-methylpiperazin-1-yl)but-1-yn-1-yl)quinazolin-6-yl)acrylamide] | 32.3 nM | 624 nM |  |
| C=C(F)C(=O)Nc1cc2c(Nc3ccnc(-c4ccccc4F)c3)ncnc2cc1N1CC(F)(F)C1 [Example 107, N-(7-(3,3-difluoroazetidin-1-yl)-4-((2-(2-fluorophenyl)pyridin-4-yl)amino)quinazolin-6-yl)-2-fluoroacrylamide] | 18.3 nM | 2500 nM |  |
| C=CC(=O)Nc1cc2c(Nc3ccnc(-c4ccccc4F)c3)ncnc2cc1O[C@@H]1CCN(C2CCOCC2)C1 [Example 117, (R)-N-(4-((2-(2-fluorophenyl)pyridin-4-yl)amino)-7-((1-(tetrahydro-2H-pyran-4-yl)pyrrolidin-3-yl)oxy)quinazolin-6-yl)acrylamide] |  | 988 nM | 2.9 nM |
| C=CC(=O)Nc1cc2c(Nc3cccc(-c4c(F)cc(F)cc4F)c3)ncnc2cc1OCCN1CCOCC1 [Example 24, N-(7-(2-morpholinoethoxy)-4-((2′,4′,6′-trifluoro-[1,1′-biphenyl]-3-yl)amino)quinazolin-6-yl)acrylamide] | 46.2 nM | 378 nM |  |
| C=C(F)C(=O)Nc1cc2c(Nc3ccnc(-c4ccccc4F)c3)ncnc2cc1N1CCC(F)CC1 [Example 109, 2-fluoro-N-(4-((2-(2-fluorophenyl)pyridin-4-yl)amino)-7-(4-fluoropiperidin-1-yl)quinazolin-6-yl)acrylamide] |  | 159 nM | 25.8 nM |
| C=C(F)C(=O)Nc1cc2c(Nc3ccnc(-c4ccccc4F)c3)ncnc2cc1N1CCC(F)(F)C1 [Example 108, N-(7-(3,3-difluoropyrrolidin-1-yl)-4-((2-(2-fluorophenyl)pyridin-4-yl)amino)quinazolin-6-yl)-2-fluoroacrylamide] |  |  | 29.9 nM |
| C=CC(=O)Nc1cc2c(Nc3ccnc(-c4ccccc4F)c3)ncnc2cc1O[C@@H]1CCN(C2CN(C)C2)C1 [Example 115, (R)-N-(4-((2-(2-fluorophenyl)pyridin-4-yl)amino)-7-((1-(1-methylazetidin-3-yl)pyrrolidin-3-yl)oxy)quinazolin-6-yl)acrylamide] |  | 23.2 nM | 7.6 nM |
| C=CC(=O)Nc1cc2c(Nc3cccc(-c4ccc(F)cc4F)c3)ncnc2cc1C#CC(C)(C)N(C)C [Example 9, N-(4-((2′,4′-difluoro-[1,1′-biphenyl]-3-yl)amino)-7-(3-(dimethylamino)-3-methylbut-1-yn-1-yl)quinazolin-6-yl)acrylamide] | 40.1 nM | 625 nM |  |
| C=CC(=O)Nc1cc2c(Nc3cccc(-c4ncc(F)cc4F)c3)ncnc2cc1OCCN1CCOCC1 [Example 16, N-(4-((3-(3,5-difluoropyridin-2-yl)phenyl)amino)-7-(2-morpholinoethoxy)quinazolin-6-yl)acrylamide] | 34 nM | 372 nM |  |
| C=CC(=O)Nc1cc2c(Nc3cc(-c4ncc(F)cc4F)ccc3F)ncnc2cc1OCCCN1CCOCC1 [Example 2, N-(4-((5-(3,5-difluoropyridin-2-yl)-2-fluorophenyl)amino)-7-(3-morpholinopropoxy)quinazolin-6-yl)acrylamide] | 121 nM |  |  |
| C=C(F)C(=O)Nc1cc2c(Nc3ccnc(-c4ccccc4F)c3)ncnc2cc1OCCOC [Example 89, 2-fluoro-N-(4-((2-(2-fluorophenyl)pyridin-4-yl)amino)-7-(2-methoxyethoxy)quinazolin-6-yl)acrylamide] |  | 112 nM | 12.8 nM |
| C=CC(=O)Nc1cc2c(Nc3cc(-c4ccc(F)cn4)ccc3F)ncnc2cc1OCCCN1CCOCC1 [Example 23, N-(4-((2-fluoro-5-(5-fluoropyridin-2-yl)phenyl)amino)-7-(3-morpholinopropoxy)quinazolin-6-yl)acrylamide] | 261 nM |  |  |

Now from value to molecule:

| GI50 [1] | IC50 (A431 (EGFR-WT)) | GI50 [2] | SMILES |
| --- | --- | --- | --- |
|  | 240 nM | 20.8 nM | C=C(F)C(=O)Nc1cc2c(Nc3ccnc(-c4ccccc4F)c3)ncnc2cc1N1CCN(C)CC1 [Example 101, 2-fluoro-N-(4-((2-(2-fluorophenyl)pyridin-4-yl)amino)-7-(4-methylpiperazin-1-yl)quinazolin-6-yl)acrylamide] |
|  | 1780 nM | 3.2 nM | C=CC(=O)Nc1cc2c(Nc3ccnc(-c4ccccc4F)c3)ncnc2cc1OCC(F)(F)F [Example 84, N-(4-((2-(2-fluorophenyl)pyridin-4-yl)amino)-7-(2,2,2-trifluoroethoxy)quinazolin-6-yl)acrylamide] |
| 129 nM |  |  | C=CC(=O)Nc1cc2c(Nc3cc(-c4ncc(F)cc4F)ccc3F)ncnc2cc1OCCN1CCOCC1 [Example 18, N-(4-((5-(3,5-difluoropyridin-2-yl)-2-fluorophenyl)amino)-7-(2-morpholinoethoxy)quinazolin-6-yl)acrylamide] |
| 105 nM | 625 nM |  | C=CC(=O)Nc1cc2c(Nc3cccc(-c4ccc(F)cn4)c3)ncnc2cc1OCCCN1CCOCC1 [Example 13, N-(4-((3-(5-fluoropyridin-2-yl)phenyl)amino)-7-(3-morpholinopropoxy)quinazolin-6-yl)acrylamide] |
|  | 1530 nM | 3 nM | C=CC(=O)Nc1cc2c(Nc3ccnc(-c4ccccc4F)c3)ncnc2cc1OCCOC [Example 85, N-(4-((2-(2-fluorophenyl)pyridin-4-yl)amino)-7-(2-methoxyethoxy)quinazolin-6-yl)acrylamide] |
|  | 703 nM | 52.6 nM | C=C(F)C(=O)Nc1cc2c(Nc3ccnc(-c4ccccc4F)c3)ncnc2cc1N1CCC(F)(F)CC1 [Example 110, N-(7-(4,4-difluoropiperidin-1-yl)-4-((2-(2-fluorophenyl)pyridin-4-yl)amino)quinazolin-6-yl)-2-fluoroacrylamide] |
|  | 1640 nM | 40.9 nM | C=C(F)C(=O)Nc1cc2c(Nc3ccnc(-c4ccccc4F)c3)ncnc2cc1N1CC(F)C1 [Example 106, 2-fluoro-N-(7-(3-fluoroazetidin-1-yl)-4-((2-(2-fluorophenyl)pyridin-4-yl)amino)quinazolin-6-yl)acrylamide] |
|  | 10.2 nM | 3.4 nM | C=C(F)C(=O)Nc1cc2c(Nc3ccnc(-c4ccccc4F)c3)ncnc2cc1O[C@@H]1CCN(C2CN(C)C2)C1 [Example 119, (R)-2-fluoro-N-(4-((2-(2-fluorophenyl)pyridin-4-yl)amino)-7-((1-(1-methylazetidin-3-yl)pyrrolidin-3-yl)oxy)quinazolin-6-yl)acrylamide] |
|  | 6 nM | 7.1 nM | C=C(F)C(=O)Nc1cc2c(Nc3ccnc(-c4ccccc4F)c3)ncnc2cc1O[C@@H]1CCN(C2CCN(C)CC2)C1 [Example 120, (R)-2-fluoro-N-(4-((2-(2-fluorophenyl)pyridin-4-yl)amino)-7-((1-(1-methylpiperidin-4-yl)pyrrolidin-3-yl)oxy)quinazolin-6-yl)acrylamide] |
|  | 1190 nM | 30 nM | C=C(F)C(=O)Nc1cc2c(Nc3ccnc(-c4ccccc4F)c3)ncnc2cc1N1CC(OC)C1 [Example 104, 2-fluoro-N-(4-((2-(2-fluorophenyl)pyridin-4-yl)amino)-7-(3-methoxyazetidin-1-yl)quinazolin-6-yl)acrylamide] |

— patent US12649727B2, “EFGR inhibitor, preparation method therefor and application thereof” (Abbisko Therapeutics Co., Ltd, priority 2020, dated 2026)
